The target in one data set is T1, human CTSB (Homo sapiens, UniProt P07858).
T1 construct: purchased R&D Biosystems 953‐CY
Description: Enzyme kinetics of recombinant human CTSB in the presence of BEA. The class given is biochemical. The following applies: uncompetitive; approximated from closest neighbor intersection point of [S]/v vs. [I] plot; Z-Leu-Arg AMC substrate, BEA 0-25 μM, 25 mM MES pH 5, 26°C; read-out: K i (estimated). The protocol: Recombinant human CTSB (R&D Biosystems, Cat# 953‐CY) was activated in a solution of 25 mM MES pH 5 and 5 mM DTT at a protein concentration of 25 μg/mL, as indicated by the manufacturer. The activation was carried out by incubating the solution in a thermal bath at 26°C for 30 min and then diluting it to a concentration of 0.2 μg/mL in a 25 mM MES buffer pH 5. Complete conversion of Procathepsin B into its cleaved form by activation was verified by SDS‐PAGE (Figure S1, Supporting Information).
Reactions were carried out in a 96‐well black microplate (Greiner Bio‐One, Cat# 675086) in a final volume of 100 μL, using 20 ng of enzyme with increasing concentrations of the fluorogenic substrate Z‐Leu‐Arg AMC (R&D Biosystems, Cat# ES008) (from 0 to 200 μM) and BEA (from 0 to 25 μM).
Progress curves were measured using a TECAN infinite M plex microplate reader with an excitation wavelength of 380 nm and an emission wavelength of 460 nm. All the components, except the enzyme, were loaded onto the plate and were left to reach a temperature of 26°C. Protein samples were loaded using a multichannel pipette. Plates were shaken using a pulse of 3.5 s with an amplitude of 4.5 mm. Data was collected for a total of 1400 s with a reading interval of 45 s.
Reaction rates were calculated from the progress curves using linear regression. […]

Data set [1] can be described thus: Solubility in aqueous buffers. It counts as physicochemical. The conditions noted are these: 0.1% (v/v) Tween 20 used to increase solubility. Here is the method:
NMR experiments were performed at 298 K on Bruker Avance III HD spectrometers operating at 750 MHz, equipped with 5 mm triple resonance TCI (^1H, ^13C, ^15N) cryoprobes and shielded z‐gradients. BEA compound was purchased (Item No. 11426) from Cayman Chemical, Ann Arbor, Michigan, USA, and recombinant human CTSB (6His tag at the C‐terminus) was purchased (Item No. 153921.10) from Biomol GmbH, Hamburg, Germany. Both CTSB and BEA were used without any further purifications. The purity of the compound (>95%) was checked by 1D ^1H NMR of 250 μM BEA compound measured (256 scans) in 90% (v/v) DMSOd6 (Figure 2a). […] To perform STD‐NMR experiments, 5 μM of CTSB and 250 μM BEA were prepared in 25 mM oxalic acid/sodium oxalate, 5% (v/v) DMSOd6, pH 5.0, 10% (v/v) D2O, and 0.1% (v/v) Tween 20. The STD‐NMR spectra were acquired with 4928 scans, and the subtraction of the reference spectrum was performed internally via phase cycling after every scan to obtain the STD effect. […] There was no compound signal detected below 0 ppm. […] The STD intensity of the aromatic proton STD effect was set to 100% as a reference, and the relative intensities were determined (Mayer and Meyer [2001]). […] Data was processed and analyzed with TopSpin 3.2 (Bruker BioSpin). […]

We go through one compound from PMC12102733, “The mycotoxin Beauvericin is an uncompetitive inhibitor of Cathepsin B” (Protein Science : A Publication of the Protein Society, 2025).

`CC(C)[C@H]1OC(=O)[C@H](Cc2ccccc2)N(C)C(=O)[C@@H](C(C)C)OC(=O)[C@H](Cc2ccccc2)N(C)C(=O)[C@@H](C(C)C)OC(=O)[C@H](Cc2ccccc2)N(C)C1=O` [BEA, Beauvericin]: the Ki at human CTSB is roughly 44.3 µM. In addition, the “solubility in aqueous buffers” value in data set [1] is given as “sparingly soluble in aqueous buffers”.
